# Measurements reported in patent US12016843B2, “Compositions and methods for the treatment of amyotrophic lateral sclerosis, parkinson's disease, parkinson's disease with dementia, dementia with lewy bodies, and multiple system atrophy” (priority 2019, dated 2024).
# Columns and labels:
# [1] = tested on: C57BL/6 mice injected with A53T mutant alpha-synuclein viral particles; assay: Dopaminergic neuron loss in substantia nigra pars compacta induced by AAV9 human A53T alpha-synuclein (TH positive neuron counts); format: in vivo, mouse; conditions: 0.5 mg/kg or 5.0 mg/kg daily ip for 5 weeks, vs group A (A53T AAV, no drug)
# Procedure: Dopaminergic neuron loss in the substantia nigra pars compacta (SNc) was induced in wildtype C57BL/6 mice using AAV9 mediated viral delivery of human alpha-synuclein harboring the pathogenic A53T mutation. 4×10^10 viral particles per SNc were injected bilaterally via stereotactic surgery. Animals were nine weeks of age when viral transduction was performed. Animals were treated daily with intraperitoneal administration of (Ia) beginning 24 hours before viral transduction and continued for 5 weeks. Experimental groups were as follows: • 1. Group A—AAV A53T injected, vehicle treatment (n=7) • 2. Group B1—AAV A53T injected, (Ia) at 0.5 mg/kg treatment (n=8) • 3. Group B2—AAV A53T injected, (Ia) at 5.0 mg/kg treatment (n=8) • 4. Group C1—Sham AAV9 injected, (Ia) at 0.5 mg/kg treatment (n=6) • 5. Group C2—Sham AAV9 injected, (Ia) at 5.0 mg/kg treatment (n=7)
# Five weeks following viral transduction, animals were sacrificed and brains were removed and processed for immunohistochemistry and cell counts (i.e., number of TH positive neurons) in the substantia nigra pars compacta were performed via automated stereology. Serial sections were cut and stained with tyrosine hydroxylase (TH) to enumerate the number of dopaminergic neurons. Results are illustrated in FIGS. 6A and 6B; ** p<0.01 vs groups; *** p<0.001 vs group A; ^OO p<0.001 vs group C1 and C2.
# [2] = tested on: corticospinal motor neurons derived from prp-TDP-43^A315T-UeGFP mouse model; assay: Neurite length in primary corticospinal motor neurons from prp-TDP-43^A315T-UeGFP mice; format: cell-based; conditions: 10 nM, 100 nM and 1000 nM, vs DMSO vehicle
# Procedure: Studies were performed in primary cells derived from the prp-TDP-43^A315T-UeGFP mouse model (Gautam, et al. Acta Neuropathol. 2019 January; 137(1): 47-69). Briefly, these mice express a pathogenic human TDP43 transgene which leads to severe structural alterations in the mitochondria, nucleus, and endoplasmic reticulum on the background of an eGFP reporter mouse. Both transgene (prp) and reporter (UCHL1) are driven by tissue specific promoter elements, leading to the generation of fluorescent green corticospinal motor neurons carrying the TDP43 mutation. Utilizing the endogenous fluorescence of the eGFP reporter, corticospinal motor neurons can be directly visualized in situ. Mixed cortical cultures were derived from the brains of prp-TDP-43^A315T-UeGFP mice and allowed to divide in serum free minimal medium for 3 cell divisions. Culture media +/− drug was removed and replenished daily. Doses of Compound Ia utilized in the experiment were 10 nM; 100 nM and 1000 nM. Drug was prepared in DMSO vehicle, and DMSO was used as vehicle control (<1% volume/volume). Cells were imaged using standard fluorescent microscopy techniques. Neurite length was calculated using automated imaging software (NIH Image J) on GFP expressing cells. Three independent biological replicates were performed, with a minimum of 10 motor neurons imaged per each replicate. […]
# [3] = tested on: SOD1 G93A high copy transgenic mice; assay: Neurological scoring (NeuroScore) in SOD1 G93A mouse model of ALS; format: in vivo; conditions: vs vehicle
# Procedure: Study Design. Three experimental groups of n=20 (10 male, 10 female) SOD1 G93A high copy transgenic mice were dosed daily via intraperitoneal administration of vehicle control; (R)-2-amino-N—((S)-1-(((S)-5-amino-1-(3-benzyl-1,2,4-oxadiazol-5-yl)pentyl)amino)-3-(4-hydroxy-2,6-dimethylphenyl)-1-oxopropan-2-yl)-5-guanidinopentanamide (as its tris-HCl salt-(Ia)) at 0.5 mg/kg; or (R)-2-amino-N—((S)-1-(((S)-5-amino-1-(3-benzyl-1,2,4-oxadiazol-5-yl)pentyl)amino)-3-(4-hydroxy-2,6-dimethylphenyl)-1-oxopropan-2-yl)-5-guanidinopentanamide (as its tris-HCl salt—(Ia)) at 5.0 mg/kg. Animals were dosed beginning at 8 weeks of age and dosing was continued until humane end of life (defined by the inability of animal to right itself from either side within 30 seconds when placed on its side). Experimental endpoints and in-life collections and observations were as follows: • 1. Bodyweight measurement. Daily recording of weight. • 2. Neurological scoring. Weekly NeuroScore, a qualitative assessment of neurological disease progression based upon a five-point grading system. […] The average force in grams of the 3 forepaw and 3 all-paws trials are analyzed with and without normalization to body weight. • 4. […]
smiles,measurement,setting,value
"Cc1cc(O)cc(C)c1C[C@H](NC(=O)[C@H](N)CCCNC(=N)N)C(=O)N[C@@H](CCCCN)c1nc(Cc2ccccc2)no1.Cl.Cl.Cl [Compound Ia, (R)-2-amino-N—((S)-1-(((S)-5-amino-1-(3-benzyl-1,2,4-oxadiazol-5-yl)pentyl)amino)-3-(4-hydroxy-2,6-dimethylphenyl)-1-oxopropan-2-yl)-5-guanidinopentanamide·3HCl]",mutant alpha-synuclein-induced loss of dopaminergic neurons in the substantia nigra (number of TH positive neurons),[1],significantly attenuated
same,average neurite length per cell,[2],improved neurite length at all doses assessed
same,progression of neurological symptom onset (five-point neurological score),"[3]; female SOD1 G93A mice, daily intraperitoneal",no effects
same,progression of neurological symptom onset (five-point neurological score),"[3]; male SOD1 G93A mice, 5.0 mg/kg daily intraperitoneal from 8 weeks of age, two-way ANOVA",delayed the progression of neurological symptom onset
